Assays:
BRAF = molecular target: T1, BRAF (Homo sapiens, UniProt P15056); assay: Z'-LYTE kinase inhibition assay against BRAF; type: biochemical; conditions: Z'-LYTE method
T1 construct: purchased Invitrogen
Description: (§1) Inhibitory activities Inhibitory activities of compounds against BRAF, and BRAF V600E were measured by Invitrogen using Z′-LYTE® Method as briefly described in the following. 4× Test compounds are dissolved in 1% DMSO. […] ATP solutions are diluted to a 4×ATP working concentration in Kinase Buffer (50 mM HEPES pH 7.5, 0.01% BRIJ-35, 10 mM MgCl2, 1 mM EGTA). Reaction started by 30-second shaking of mixture consisting of 2.5 μL 4× test compound, […] and 2.5 μL 4×ATP Solution on Bar-coded Corning, low volume NBS, black 384-well plate (Corning Cat. #3676). Then the mixture was incubated for 60-minute at room temperature for the kinase reaction, followed by addition of 5 μL of a 1:1024 dilution of development reagent A and 30-second plate shake. The mixture was then incubated for another 60-minute at room temperature for development reaction. Fluorescence was read by plate reader. IC50 was calculated by plotting the concentration of compound vs the percentage of inhibition in treated wells using GraphPad Prism 5.
(§2) Table 2 and 3 show % inhibition at 1 μM of several compounds of the invention against BRAF and BRAF V600E, respectively, using Z′-LYTE® method.

BRAF V600E = molecular target: T2, BRAF V600E (Homo sapiens, UniProt P15056, V600E); assay: Z'-LYTE kinase inhibition assay against BRAF V600E; type: biochemical; conditions: Z'-LYTE method
T2 construct: purchased Invitrogen
T2 sequence (P15056 whole entry V600E): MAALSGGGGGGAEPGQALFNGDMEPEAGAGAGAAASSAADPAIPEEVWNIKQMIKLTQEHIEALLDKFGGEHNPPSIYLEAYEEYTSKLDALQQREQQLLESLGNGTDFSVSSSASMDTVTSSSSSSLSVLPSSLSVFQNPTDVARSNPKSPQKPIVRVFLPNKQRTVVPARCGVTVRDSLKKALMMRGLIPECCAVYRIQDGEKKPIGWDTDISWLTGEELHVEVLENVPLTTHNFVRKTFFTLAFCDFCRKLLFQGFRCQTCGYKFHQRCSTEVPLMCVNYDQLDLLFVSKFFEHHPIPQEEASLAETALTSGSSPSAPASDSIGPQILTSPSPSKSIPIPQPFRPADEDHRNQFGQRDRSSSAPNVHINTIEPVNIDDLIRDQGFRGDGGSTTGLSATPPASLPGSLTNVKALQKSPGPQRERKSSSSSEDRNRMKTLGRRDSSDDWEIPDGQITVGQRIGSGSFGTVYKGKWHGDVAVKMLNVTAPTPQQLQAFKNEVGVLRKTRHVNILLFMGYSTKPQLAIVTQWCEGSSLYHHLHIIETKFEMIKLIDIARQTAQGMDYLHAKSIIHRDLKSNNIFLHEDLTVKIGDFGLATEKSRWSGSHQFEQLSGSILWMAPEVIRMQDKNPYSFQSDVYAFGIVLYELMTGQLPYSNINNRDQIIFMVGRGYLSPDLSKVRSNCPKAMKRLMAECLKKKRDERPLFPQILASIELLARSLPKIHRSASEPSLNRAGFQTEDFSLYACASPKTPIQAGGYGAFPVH
Description: as §1, §2
The scale utilized in Table 4 is as follows: +++ less than 100 nM; and ++ greater than 100 nM.

KDR (VEGFR2) = molecular target: T3, KDR (VEGFR2) (Homo sapiens, UniProt P35968); assay: Z'-LYTE kinase inhibition assay against KDR; type: biochemical; conditions: Z'-LYTE method
T3 construct: purchased Invitrogen
T3 sequence (P35968 20-1356): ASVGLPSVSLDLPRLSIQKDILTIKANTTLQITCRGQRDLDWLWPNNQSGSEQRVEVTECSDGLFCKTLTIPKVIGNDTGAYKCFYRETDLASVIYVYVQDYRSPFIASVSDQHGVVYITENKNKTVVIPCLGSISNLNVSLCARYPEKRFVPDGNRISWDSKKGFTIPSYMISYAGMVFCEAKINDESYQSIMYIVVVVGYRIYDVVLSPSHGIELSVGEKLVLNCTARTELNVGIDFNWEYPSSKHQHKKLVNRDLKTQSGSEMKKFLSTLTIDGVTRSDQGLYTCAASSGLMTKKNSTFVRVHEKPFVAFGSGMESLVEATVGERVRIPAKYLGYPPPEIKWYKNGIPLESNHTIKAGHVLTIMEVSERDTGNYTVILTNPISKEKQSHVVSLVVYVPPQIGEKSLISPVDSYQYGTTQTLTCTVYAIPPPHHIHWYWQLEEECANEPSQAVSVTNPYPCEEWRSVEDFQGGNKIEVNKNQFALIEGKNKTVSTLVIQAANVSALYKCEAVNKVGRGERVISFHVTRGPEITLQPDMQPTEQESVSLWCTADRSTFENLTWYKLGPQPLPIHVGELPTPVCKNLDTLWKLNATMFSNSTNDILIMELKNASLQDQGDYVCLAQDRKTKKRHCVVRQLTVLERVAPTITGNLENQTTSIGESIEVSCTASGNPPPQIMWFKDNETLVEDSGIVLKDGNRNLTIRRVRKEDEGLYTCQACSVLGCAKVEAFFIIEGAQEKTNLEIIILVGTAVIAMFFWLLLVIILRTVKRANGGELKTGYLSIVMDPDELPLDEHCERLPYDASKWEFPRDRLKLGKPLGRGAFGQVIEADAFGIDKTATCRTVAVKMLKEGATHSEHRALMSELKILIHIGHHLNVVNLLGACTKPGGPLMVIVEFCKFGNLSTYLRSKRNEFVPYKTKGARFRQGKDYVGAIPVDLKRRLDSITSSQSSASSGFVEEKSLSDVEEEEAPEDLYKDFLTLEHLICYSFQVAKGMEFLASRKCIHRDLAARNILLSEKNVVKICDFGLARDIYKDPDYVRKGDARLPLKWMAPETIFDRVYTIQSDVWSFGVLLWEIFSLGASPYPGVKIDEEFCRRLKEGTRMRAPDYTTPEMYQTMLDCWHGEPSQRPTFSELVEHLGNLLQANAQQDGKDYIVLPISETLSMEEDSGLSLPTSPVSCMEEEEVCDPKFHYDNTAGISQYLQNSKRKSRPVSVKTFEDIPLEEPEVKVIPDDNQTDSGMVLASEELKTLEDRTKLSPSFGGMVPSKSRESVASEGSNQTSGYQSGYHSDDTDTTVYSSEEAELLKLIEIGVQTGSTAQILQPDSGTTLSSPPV
Description: Inhibitory activities of compounds against KDR (VEGFR2) were also measured by Invitrogen using Z′-LYTE® Method as described above with the following modification. The 2×KDR (VEGFR2)/Tyr 01 mixture is prepared in 50 mM HEPES pH 7.5, 0.01% BRIJ-35, 10 mM MgCl2, 1 mM EGTA. The final 10 μL Kinase Reaction consists of 0.5-11.7 ng KDR (VEGFR2) and 2 μM Tyr 01 in 50 mM HEPES pH 7.5, 0.01% BRIJ-35, 10 mM MgCl2, 1 mM EGTA. After the 1 hour Kinase Reaction incubation, 5 μL of a 1:256 dilution of Development Reagent B is added.
The scale utilized in Table 6 is as follows: +++ less than 100 nM; and ++ greater than 100 nM

A375 cells = assay: Inhibition of cancer cell growth, MTT or MTS assay, A375; type: cell-based; conditions: Homo sapiens, A-375, 72 h incubation
Description: (§3) Inhibition of cell growth by compounds was measured using MTT or MTS assay. Tumor cell lines were purchased from ATCC (American Type Culture Collection, Manassas, Va.). All cell lines were maintained in RPMI 1640 (Hyclone) supplemented with 10% fetal bovine serum (FBS, Hyclone), glutamine (2 mM, Hyclone), and antibiotics (penicillin 100 U/mL and streptomycin 50 μg/mL) at 37° C. in a humidified atmosphere of 5% CO2 in air. Taxol (as a positive control, Sigma) and compounds were dissolved in DMSO (Sigma), and the final concentration of DMSO in the medium was 1%. Tumor cells were plated in 96-well plates at densities of about 2000 (A375) or 4000 (A549 and Colo205) cells/well of a 96-well plate and allowed to adhere/grow for 24 h. They were then treated with various concentrations of drug and incubated for 72 h. For MTT method, medium was then removed by inverting and tapping the plates. 100 μL of MTT (0.5 mg/ml) was added to each well followed by an incubated at 37° C. for 4 h. MTT was then removed and 200 μL of DMSO was added to each well, and the ODs at 570 nm were measured after a 5 second shaking cycle in a 96-well spectrophotometer. For MTS method, 20 μL MTS (CellTiter 96 Aqueous One Solution, Promega) was added to each well followed by an incubated at 37° C. for 2-4 h, solutions were then directly put in a 96-well spectrophotometer, and the ODs at 490 nm were measured.
(§4) All concentrations of compounds were tested in triplicate and controls were averaged over 4 wells. IC50 was calculated by plotting the concentration of compound vs the percentage of inhibition in treated wells using GraphPad Prism 5. […] The scale utilized in Tables 7-9 is as follows: +++ less than 1000 nM; ++ between 1000 nM and 5000 nM; and + greater than 5000 nM. The scale utilized in […]

A549 cells = assay: Inhibition of cancer cell growth, MTT or MTS assay, A549; type: cell-based; conditions: Homo sapiens, 72 h incubation
Description: as §3, §4

Colo205 cells = assay: Inhibition of cancer cell growth, MTT or MTS assay, Colo205; type: cell-based; conditions: Homo sapiens, COLO 205, 72 h incubation
Description: as §3, §4

Colo205 tumor xenograft = assay: Inhibition of tumor growth in Colo205 tumor xenograft model; type: in vivo, BALB/c female nude mice; conditions: 30 mg/kg, qd X 21, i.p.
Description: Cells were implanted in BALB/c female nude mice and grown as tumor xenografts. When tumors achieved 150-250 mm^3, mice were assigned into treatment and control groups using randomized block design based upon their tumor volumes. Each group contained 6 tumor-bearing mice. Tumors were measured twice weekly in two dimensions using a caliper, and the tumor volume was calculated from two-dimensional measurements using the equation V=0.5×a×b^2 where a and b are the long and short diameters of the tumor, respectively. Relative tumor volume (RTV) was defined as TVt/TVi, the ratio of the volume on a given day (TVt) and the volume at the start of treatment (TVi). Relative tumor growth rate (T/C) was defined as RTVT/RTVC, the ratio of relative tumor volume of treatment group (RTVT) and relative tumor volume of control group (RTVC) on a given day. Inhibition of tumor growth in a Colo205 tumor xenograft model is shown below in Table 10 for compound C14.

T1 sequence (P15056 whole entry): as the sequence (P15056 whole entry V600E) above, with E600V counted along it

Row | SMILES | inhibition at 1 µM (BRAF) [%] | inhibition at 1 µM (BRAF V600E) [%] | IC50 (BRAF V600E) [µM] | inhibition at 1 µM (KDR (VEGFR2)) [%] | IC50 (KDR (VEGFR2)) [µM] | IC50 (A375 cells) [µM] | IC50 (A549 cells) [µM] | IC50 (Colo205 cells) [µM] | T/C (relative tumor growth rate) (Colo205 tumor xenograft) [%] | Tumor Volume Post-treatment (Colo205 tumor xenograft) [mm3] | Tumor Volume Pre-treatment (Colo205 tumor xenograft; baseline) [mm3]
1 | O=C(Nc1ccc(C(=O)c2ccc3ncc(N4CCNCC4)nc3c2)cc1)Nc1ccc(F)c(C(F)(F)F)c1 [Compound C14, 1-(4-fluoro-3-(trifluoromethyl)phenyl)-3-(4-(3-(piperazin-1-yl)quinoxaline-6-carbonyl)phenyl)urea] | < 70 | > 89 | > 0.1 | > 89 | > 0.1 | < 1 | < 1 | < 1 | 65 | 1016 | 233
2 | O=C(Nc1ccc(C(=O)c2ccc3ncc(N4CCNCC4)nc3c2)cc1)Nc1cccc(C(F)(F)F)c1 [Compound C17, 1-(4-(3-(piperazin-1-yl)quinoxaline-6-carbonyl)phenyl)-3-(3-(trifluoromethyl)phenyl)urea] | < 70 | > 89 | < 0.1 | 70 to 89 | < 0.1 | < 1 | < 1 | 1 to 5 |  |  | 
3 | O=C(Nc1cccc(C(F)(F)F)c1)Nc1ccc(C(=O)c2ccc3ncc(N4CCNCC4)nc3c2)c(F)c1 [Compound C21, 1-(3-fluoro-4-(3-(piperazin-1-yl)quinoxaline-6-carbonyl)phenyl)-3-(3-(trifluoromethyl)phenyl)urea] | < 70 | > 89 |  | > 89 | < 0.1 | < 1 | < 1 | 1 to 5 |  |  | 

Source: patent publication US10047059B2, “Substituted quinoxalines for inhibiting kinase activity” (NEUPHARMA, INC., priority 2012, dated 2018)
